From US11384060B2, “Amide compounds and use thereof” (ALPHALA CO., LTD., priority 2017, dated 2022)
Like-named read-outs stand apart in the source and are kept apart here.

What was measured:
glucagon receptor (GCGR) = target: T1, glucagon receptor (GCGR) (Homo sapiens, UniProt P47871); test: I125-glucagon binding assay (competition, GCGR membrane fractions)
T1 construct: expressed in transfected cells; host or cells: CHO-K1 cells overexpressing GCGR (membrane fractions)
In short: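 Competition of 0.0625 nM (final) I^125-glucagon for 30 min at 25° C, after 5 min compound preincubation, using 7.5 μg/well GCGR-overexpressing CHO-K1 membranes in 50 mM Tris pH 7.4, 0.5% BSA. Filtration onto PEI-coated GF/B, micro-beta counting, and non-linear regression gave IC50.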

[1] = target: T2, glucagon receptor (GCGR) overexpressed CHO-K1 cells or human primary hepatocytes (Homo sapiens, UniProt P47871); test: Glucagon cAMP inhibition assay (Cisbio cAMP Dynamic 2 HTRF); type: cell-based
T2 construct: expressed in transfected cells; host or cells: GCGR overexpressed CHO-K1 cells or human primary hepatocytes (endogenous receptor)
In short: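 HTRF read-out of glucagon-induced cAMP, with IC50 from non-linear regression. Cells (GCGR CHO-K1 or human primary hepatocytes) in HBSS/0.1% BSA/800 nM IBMX took compound dilutions for 30 min (final DMSO 1%), then EC50-level glucagon for 30 min at room temperature, then a 60 min lysis/detection step.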

[2] = competition with I125-glucagon 0.0625 nM, membrane fractions of GCGR overexpressed CHO-K1 cells
[3] = inhibition of glucagon (EC50 concentration) induced cAMP production

T1 sequence (P47871 26-477): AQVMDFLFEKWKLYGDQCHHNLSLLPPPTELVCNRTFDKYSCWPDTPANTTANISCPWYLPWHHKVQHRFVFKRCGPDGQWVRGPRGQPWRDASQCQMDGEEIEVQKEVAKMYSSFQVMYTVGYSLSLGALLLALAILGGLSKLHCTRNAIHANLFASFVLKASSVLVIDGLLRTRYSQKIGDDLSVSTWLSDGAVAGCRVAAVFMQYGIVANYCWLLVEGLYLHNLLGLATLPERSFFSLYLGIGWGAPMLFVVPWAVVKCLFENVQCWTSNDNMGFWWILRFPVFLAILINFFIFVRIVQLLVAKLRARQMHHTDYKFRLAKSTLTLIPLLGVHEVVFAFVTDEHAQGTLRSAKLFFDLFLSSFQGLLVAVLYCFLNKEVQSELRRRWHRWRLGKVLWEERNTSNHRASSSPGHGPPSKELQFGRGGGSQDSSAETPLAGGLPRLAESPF
T2 sequence (P47871 26-477): as above

Row | IC50 (glucagon receptor (GCGR); [2]) | IC50 cAMP [1, 3] | IC50 (glucagon receptor (GCGR)) | IC50 cAMP [1] | Compound
1 | 57 nM | 71 nM |  |  | CC[C@H](C)[C@@H](COc1ccc(-c2ccc(C(F)(F)F)cc2Cl)c(OC)c1)Nc1ccc(C(=O)NCCC(=O)O)cc1 [Compound 13-3, 3-(4-(((2S,3S)-1-((2′-chloro-2-methoxy-4′-(trifluoromethyl)-[1,1′-biphenyl]-4-yl)oxy)-3-methylpentan-2-yl)amino)benzamido)propanoic Acid]
2 | 68 nM | 131 nM |  |  | CC[C@H](C)[C@@H](COc1ccc(-c2ccc(C(F)(F)F)cc2F)c(OC)c1)Nc1ccc(C(=O)NCCC(=O)O)cc1 [Compound 13-4]
3 | 111 nM | 112 nM |  |  | COc1cc(OC[C@@H](Nc2ccc(C(=O)NCCC(=O)O)cc2)C(C)C)ccc1-c1cc2ccccc2o1 [Compound 13-5, (S)-3-(4-((1-(4-(benzofuran-2-yl)-3-methoxyphenoxy)-3-methylbutan-2-yl)amino)benzamido)propanoic Acid]
4 | 89 nM | 97 nM |  |  | COc1cc(OC[C@@H](Nc2ccc(C(=O)NCCC(=O)O)cc2)C(C)C)ccc1-c1ccc(C(F)(F)F)cc1Cl [Compound 13-6, (S)-3-(4-((1-((2′-chloro-2-methoxy-4′-(trifluoromethyl)-[1,1′-biphenyl]-4-yl)oxy)-3-methylbutan-2-yl)amino)benzamido)propanoic Acid]
5 | 95 nM | 139 nM |  |  | COc1cc(OC[C@@H](Nc2ccc(C(=O)NCCC(=O)O)cc2)C(C)C)ccc1-c1ccc(Cl)cc1Cl [Compound 13-7, (S)-3-(4-((1-((2′,4′-dichloro-2-methoxy-[1,1′-biphenyl]-4-yl)oxy)-3-methylbutan-2-yl)amino)benzamido)propanoic Acid]
6 | 79 nM | 77.8 nM |  |  | COc1cc(OC[C@@H](Nc2ccc(C(=O)NCCC(=O)O)cc2)C(C)C)ccc1-c1ccc(C(F)(F)F)cc1F [Compound 13-8, (S)-3-(4-((1-((2′-fluoro-2-methoxy-4′-(trifluoromethyl)-[1,1′-biphenyl]-4-yl)oxy)-3-methylbutan-2-yl)amino)benzamido)propanoic Acid]
7 | 54 nM | 219 nM |  |  | CCCC[C@@H](COc1ccc(-c2ccc(Cl)cc2Cl)c(OC)c1)Nc1ccc(C(=O)NCCC(=O)O)cc1 [Compound 13-9, (S)-3-(4-((1-((2′,4′-dichloro-2-methoxy-[1,1′-biphenyl]-4-yl)oxy)hexan-2-yl)amino)benzamido)propanoic Acid]
8 | 92 nM | 246 nM |  |  | COc1cc(OC[C@@H](Nc2ccc(C(=O)NCCC(=O)O)cc2)C(C)C)ccc1-c1ccc(C(F)(F)F)cc1 [Compound 13-10, (S)-3-(4-((1-((2-methoxy-4′-(trifluoromethyl)-[1,1′-biphenyl]-4-yl)oxy)-3-methylbutan-2-yl)amino)benzamido)propanoic Acid]
9 | 47 nM | 118 nM |  |  | CCCC[C@@H](COc1ccc(-c2ccc(C(F)(F)F)cc2)c(OC)c1)Nc1ccc(C(=O)NCCC(=O)O)cc1 [Compound 13-11, (S)-3-(4-((1-((2-methoxy-4′-(trifluoromethyl)-[, 1′-biphenyl]-4-yl)oxy)hexan-2-yl)amino)benzamido)propanoic Acid]
10 | 608 nM | 23347 nM |  |  | CC[C@H](C)[C@@H](COc1ccc(-c2nnc(-c3ccccc3)o2)c(OC)c1)Nc1ccc(C(=O)NCCC(=O)O)cc1 [Compound 13-12, 3-(4-(((2S,3S)-1-(3-methoxy-4-(5-phenyl-1,3,4-oxadiazol-2-yl)phenoxy)-3-methylpentan-2-yl)amino)benzamido)propanoic Acid]
11 | 15 nM | 66 nM |  |  | CCCC[C@@H](COc1ccc(-c2ccc(C(F)(F)F)cc2F)c(OC)c1)Nc1ccc(C(=O)NCCC(=O)O)cc1 [Compound 13-14, (S)-3-(4-((1-((2′-fluoro-2-methoxy-4′-(trifluoromethyl)-[1,1′-biphenyl]-4-yl)oxy)hexan-2-yl)amino)benzamido)propanoic Acid]
12 | 750 nM | 1232 nM |  |  | COc1cc(OC[C@@H](Nc2ccc(C(=O)NCCC(=O)O)cn2)C(C)C)ccc1-c1cc2ccccc2o1 [Compound 14-1, (S)-3-(6-((1-(4-(benzofuran-2-yl)-3-methoxyphenoxy)-3-methylbutan-2-yl)amino)nicotinamido)propanoic Acid]
13 | 74 nM | 508 nM |  |  | CCCC[C@@H](COc1ccc(-c2ccc(C(F)(F)F)cc2F)c(OC)c1)Nc1ccc(C(=O)NCCC(=O)O)cn1 [Compound 14-2, (S)-3-(6-((1-((2′-fluoro-2-methoxy-4′-(trifluoromethyl)-[1,1′-biphenyl]-4-yl)oxy)hexan-2-yl)amino)nicotinamido)propanoic Acid]
14 |  |  | 388 nM | 7356 nM | O=C(NCc1nn[nH]n1)c1ccc(N[C@H](COc2ccc(-c3cc4ccccc4o3)cn2)c2ccccc2)cc1 [Compound 15-1, (S)—N-((2H-tetrazol-5-yl)methyl)-4-((2-((5-(benzofuran-2-yl)pyridin-2-yl)oxy)-1-phenylethyl)amino)benzamide]
15 |  |  | 390 nM | 1543 nM | CC(C)[C@@H](COc1ccc(-c2ccc(C(F)(F)F)cc2)cn1)Nc1ccc(C(=O)NCc2nnn[nH]2)cc1 [Compound 15-2, (S)—N-((1H-tetrazol-5-yl)methyl)-4-((3-methyl-1-((5-(4-(trifluoromethyl)phenyl)pyridin-2-yl)oxy)butan-2-yl)amino)benzamide]
16 |  |  | 51 nM | 111 nM | CC(C)[C@@H](COc1ccc(-c2cc3ccccc3o2)cn1)Nc1ccc(C(=O)NCCC(=O)O)cc1 [Compound 15-3, (S)-3-(4-((1-((5-(benzofuran-2-yl)pyridin-2-yl)oxy)-3-methylbutan-2-yl)amino)benzamido)propanoic Acid]
17 |  |  | 626 nM | 3241 nM | CC(C)(C)c1ccc(-c2ccc(OC[C@@H](Nc3ccc(C(=O)NCCC(=O)O)cc3)c3ccccc3)nc2)cc1 [Compound 15-4]
18 |  |  | 706 nM | 2067 nM | O=C(O)CCNC(=O)c1ccc(N[C@H](COc2ccc(-c3cc4ccccc4o3)cn2)c2ccccc2)cc1 [Compound 15-5, (S)-3-(4-((2-((5-(benzofuran-2-yl)pyridin-2-yl)oxy)-1-phenylethyl)amino)benzamido)propanoic Acid]
19 |  |  | 172 nM | >30000 nM | CC(C)(C)c1ccc(-c2ccc(OC[C@@H](Nc3ccc(C(=O)NC[C@@H](O)C(=O)O)cc3)c3ccccc3)nc2)cc1 [Compound 15-6, (R)-3-(4-(((S)-2-((5-(4-(tert-butyl)phenyl)pyridin-2-yl)oxy)-1-phenylethyl)amino)benzamido)-2-hydroxypropanoic Acid]
20 |  |  | 753 nM | 258.8 nM | CC(C)[C@@H](COc1ccc(-c2ccc(C(F)(F)F)cc2)cn1)Nc1ccc(C(=O)NCCC(=O)O)cc1 [Compound 15-7, (S)-3-(4-((3-methyl-1-((5-(4-(trifluoromethyl)phenyl)pyridin-2-yl)oxy)butan-2-yl)amino)benzamido)propanoic Acid]
21 |  |  | 3300 nM | >30000 nM | CC(C)[C@@H](COc1ccc(-c2ccc(C(F)(F)F)cc2)cn1)Nc1ccc(C(=O)NC[C@@H](O)C(=O)O)cc1 [Compound 15-8, (R)-2-hydroxy-3-(4-(((S)-3-methyl-1-((5-(4-(trifluoromethyl)phenyl)pyridin-2-yl)oxy)butan-2-yl)amino)benzamido)propanoic Acid]
22 |  |  | 330 nM | 81.5 nM | CC(C)[C@@H](COc1ccc(-c2ccc(C(F)(F)F)cc2Cl)cn1)Nc1ccc(C(=O)NCCC(=O)O)cc1 [Compound 15-9, (S)-3-(4-((1-((5-(2-chloro-4-(trifluoromethyl)phenyl)pyridin-2-yl)oxy)-3-methylbutan-2-yl)amino)benzamido)propanoic Acid]
23 |  |  | 80 nM | 198.4 nM | CC(C)C[C@@H](COc1ccc(-c2ccc(C(F)(F)F)cc2Cl)cn1)Nc1ccc(C(=O)NCCC(=O)O)cc1 [Compound 15-10, (S)-3-(4-((1-((5-(2-chloro-4-(trifluoromethyl)phenyl)pyridin-2-yl)oxy)-4-methylpentan-2-yl)amino)benzamido)propanoic Acid]
24 |  |  | 210 nM | 284.7 nM | CC(C)C[C@@H](COc1ccc(-c2ccc(C(F)(F)F)cc2)cn1)Nc1ccc(C(=O)NCCC(=O)O)cc1 [Compound 15-11, (S)-3-(4-((4-methyl-1-((5-(4-(trifluoromethyl)phenyl)pyridin-2-yl)oxy)pentan-2-yl)amino)benzamido)propanoic Acid]
25 |  |  | 376 nM | 294 nM | CC[C@H](C)[C@@H](COc1ccc(-c2ccc(C(F)(F)F)cc2)cn1)Nc1ccc(C(=O)NCCC(=O)O)cc1 [Compound 15-12, 3-(4-(((2S,3S)-3-methyl-1-((5-(4-(trifluoromethyl)phenyl)pyridin-2-yl)oxy)pentan-2-yl)amino)benzamido)propanoic Acid]
26 |  |  | 98 nM | 123 nM | CC[C@H](C)[C@@H](COc1ccc(-c2ccc(C(F)(F)F)cc2Cl)cn1)Nc1ccc(C(=O)NCCC(=O)O)cc1 [Compound 15-13, 3-(4-(((2S,3S)-1-((5-(2-chloro-4-(trifluoromethyl)phenyl)pyridin-2-yl)oxy)-3-methylpentan-2-yl)amino)benzamido)propanoic Acid]
